Experimental data published in patent publication US20190175528A1, “INHIBITION OF BIOFILM ORGANISMS” (NovaBiotics Limited, priority 2009, published 2019).
Where two headings read alike, the source gives them in different places.

Key:
[1] = test system: S. aureus DSM 11729 biofilm cells; assay type: cell-based, Staphylococcus aureus; details: for MBEC, S. aureus (MRSA) DSM 11729 biofilm cells: agent alone
Method: (§1) The FIC was also calculated to assess the interaction of two antimicrobial agents in combination against bacterial biofilms. The same formulae applied, using MBEC instead of MIC.
(§2) A total volume of 100 μl bacterial inoculum in Mueller-Hinton was added to each well of 96-well plates (challenge plates) and the plates were incubated at 37° C. for 24 h on a gyrorotary shaking platform (Grant-bio PS-3D, Shepreth, England) at 24 rpm to allow for biofilm formation.
(§3) The challenge plates were then rinsed once with sterile PBS (lx) and two-fold serial dilutions of antimicrobial agents in Mueller-Hinton were added to the challenge plates. The challenge plates were incubated at 37° C. for 24 h on a gyrorotary shaking platform (Grant-bio PS-3D, Shepreth, England) at 24 rpm.
(§4) The supernatants from each of the challenge plates were transferred into fresh plates and the optical density was measured at 625 nm on a microtitre plate reader (BioTek Powerwave XS, Winooski, USA). The MBEC was obtained by the lowest concentration of antimicrobial showing no bacterial growth.
(§5) The assessment of the activity of NP108 and cysteamine against bacterial biofilms was carried out with 24 h-old biofilms and the activity of both compounds in combination was also determined. The activity of the antimicrobial agents against bacterial biofilms was determined by their activity against the biofilm cells and against the persister cells.

[2] = test system: P. aeruginosa ATCC BAA-47; experiment: microbe, parasite or virus in culture; assay type: cell-based, Pseudomonas aeruginosa
Method: (§6) The bacterial inoculum was established by the dilution method from actively-growing cultures in Mueller-Hinton broth, standardized with 0.5 McFarland turbidity standard as described in the CLSI method M26-A.
(§7) To determine the prevention of biofilm formation, both the bacterial inoculum and the antimicrobial agents were added simultaneously to the plates. The plates were incubated at 37° C. for 24 h and the optical density was read at 625 nm on a microtitre plate reader (BioTek Powerwave XS, Winooski, USA). The MIC was obtained as the lowest concentration of antimicrobial showing total inhibition of bacterial growth. […]
(§8) FIC=MICA[combination]/MICA[alone]+MICB[combination]/MICB[alone] […]
(§9) In order to assess for the prevention of biofilm formation by both Gram-positive and Gram-negative bacteria, the bacterial inoculum and antimicrobial agents were added simultaneously in the plates. The range of concentrations of antimicrobial agents was 0-500 μg/ml NP108 and 0-320 μg/ml cysteamine against the Gram-negative bacteria P. aeruginosa ATCC BAA-47 and 0-1000 μg/ml NP108 and 0-320 μg/ml cysteamine against the Gram-positive MRSA.

[3] = test system: P. aeruginosa ATCC BAA-47 (PAO1) biofilm cells; experiment: MBEC against 24 h-old biofilm; assay type: cell-based, Pseudomonas aeruginosa
Method: as §1, §2, §3, §4, §5

[4] = test system: Staphylococcus spp (4) persister cells; experiment: Persister cells in biofilms (live/dead staining), summary over strains; assay type: cell-based; details: agent alone; persister cells
Method: (§10) Following transfer of the supernatant from the challenge plates, the biofilms were rinsed once with sterile PBS (lx) and 100 μl of BacLight live/dead fluorescent staining solution (Invitrogen, Paisley, UK) containing 4 μM SYTO9 and 20 μM propidium iodide (PI) in sterile PBS (lx) were added to the wells of the challenge plates. The plates were incubated at room temperature in the dark for 15 min and the fluorescence was read at 485(ex)/528(em) and 485(ex)/645(em) for SYTO9 and PI fluorescence, respectively on a fluorescence microtitre plate reader (BioTek Synergy HT, Winooski, USA) with the sensitivity set at 50 and bottom optics position was selected. Direct observation of the biofilms with an Axiovert 40 fluorescence microscope (Zeiss, Gottingen, Germany) allowed identifying the presence of live and dead bacteria and pictures of the biofilms were taken at 100 to 400-fold magnification.
(§11) The relative viability of persister cells was determined by the live/dead fluorescence measurements ratio and microscopic observations were used to confirm the presence or absence of live cells.
(§12) Summary of the activity of the tested antimicrobial agents against the Gram-negative P. aeruginosa strains and the Gram-positive Staphylococcus spp. The number into brackets indicates the maximum number of strains tested. MIC: minimum inhibition concentration; MBEC: minimum biofilm eradication concentration; FIC: fractional inhibitory concentration.

[5] = test system: Staphylococcus spp (4) biofilm cells; assay type: cell-based; details: for MBEC, Staphylococcus spp (4): agent alone, biofilm cells
Method: as §1, §2, §3, §4, §12

[6] = test system: S. aureus DSM 11729 persister cells; experiment: Relative viability of persister cells (SYTO9/PI live/dead fluorescence, microscopy); assay type: cell-based, Staphylococcus aureus; details: agent alone, at low concentrations; FIG. 18
Method: as §10, §11
The activity of NP108 and cysteamine against the persister cells was assessed using a fluorescence staining method to determine the relative viability of the cells. […]

[7] = test system: P. aeruginosa strains (7) biofilm cells; assay type: cell-based, Pseudomonas aeruginosa; details: agent alone
Method: as §1, §2, §3, §4, §12

[8] = test system: P. aeruginosa ATCC BAA-47; details: data not shown; for bactericidal concentration, P. aeruginosa ATCC BAA-47: agent alone
[9] = test system: S. aureus DSM 11729 (MRSA); experiment: microbe, parasite or virus in culture; assay type: cell-based, Staphylococcus aureus
Method: as §6, §7, §8, §9

Staphylococcus spp (4) = experiment: microbe, parasite or virus in culture; assay type: cell-based; details: agent alone, range over strains
Method: as §6
(§13) To determine the prevention of biofilm formation, both the bacterial inoculum and the antimicrobial agents were added simultaneously to the plates. The plates were incubated at 37° C. for 24 h and the optical density was read at 625 nm on a microtitre plate reader (BioTek Powerwave XS, Winooski, USA). The MIC was obtained as the lowest concentration of antimicrobial showing total inhibition of bacterial growth.
(§14) The FIC corresponds to an interaction coefficient indicating whether the combination of antimicrobial agents is synergistic, additive, antagonist or neutral. The FIC is determined by comparing the activity of an agent in combination (MIC of agent A+agent B) with the activity of the agent alone (MIC of agent A or agent B) as follow (Singh et al., 2000):
(§15) FIC=MICA[combination]/MICA[alone]+MICB[combination]/MICB[alone]
(§16) Additive combinations of two antimicrobial agents are indicated by a FIC index of 1, whereas a FIC index <1 indicates synergistic combinations. Neutral combinations would give a FIC between 1 and 4, a FIC index higher than 4 indicates antagonist effects between the two antimicrobial agents.
as §12

[10] = test system: P. aeruginosa strains (7); experiment: microbe, parasite or virus in culture; assay type: cell-based, Pseudomonas aeruginosa; details: agent alone, range over strains
Method: as §6, §13, §14, §15, §16, §12

[11] = test system: Gram-positive and Gram-negative persister cells; experiment: Relative viability of persister cells (SYTO9/PI live/dead fluorescence); assay type: cell-based; details: lowest concentration tested; FIG. 10
Method: as §10, §11

[12] = test system: S. aureus DSM 11729 (MRSA); details: data not shown; for bactericidal concentration, S. aureus DSM 11729: agent alone
[13] = test system: P. aeruginosa strains (7) persister cells; experiment: Persister cells in biofilms (live/dead staining), summary over strains; assay type: cell-based, Pseudomonas aeruginosa; details: agent alone
Method: as §10, §11, §12

[14] = test system: P. aeruginosa ATCC27853 biofilm cells; assay type: cell-based, Pseudomonas aeruginosa; details: agent alone; FIG. 21a
Method: as §2, §3, §4

[15] = test system: P. aeruginosa ATCC BAA-47 (PAO1) persister cells; experiment: Relative viability of persister cells (SYTO9/PI live/dead fluorescence, microscopy); assay type: cell-based, Pseudomonas aeruginosa; details: agent alone; for activity against persister cells of P. aeruginosa ATCC BAA-47: relative viability remained significant, FIG. 12
Method: as §10, §11
The activity of NP108 and cysteamine against the persister cells was assessed using a fluorescence staining method to determine the relative viability of the cells. The nucleic acid-binding fluorescent molecules used were SYTO9 and PI, which penetrate all bacterial cells (green fluorescence) and membrane-disrupted cells (red fluorescence), respectively.

[16] = agent alone, prevention of biofilm formation, 24 h

Compound | MBEC, S. aureus (MRSA) DSM 11729 biofilm cells [1] [µg/mL] | MBEC [alone], P. aeruginosa ATCC BAA-47 biofilm cells ([3]; agent alone) [µg/mL] | Persisters, active concentration, Staphylococcus spp (4) [4] | MBEC, Staphylococcus spp (4) [5] | activity against persister cells of S. aureus DSM 11729 [6] | MBEC, P. aeruginosa strains (7) [7] | bactericidal concentration, P. aeruginosa ATCC BAA-47 [8] [µg/mL] | bactericidal concentration, S. aureus DSM 11729 [12] | Persisters, active concentration, P. aeruginosa strains (7) [13] | activity against persister cells of P. aeruginosa ATCC BAA-47 [15] | MIC, Staphylococcus spp (4) (Staphylococcus spp (4)) [µg/mL] | MIC, P. aeruginosa strains (7) [10] [µg/mL] | further results
NCCS [Cysteamine, cysteamine, reference compound] | 250 | > 100.00 | 6,250-12,500 μg/ml | >25,000 μg/ml | lack of activity | >5,000 μg/ml | > 320 | more than 320 μg/ml | 500-6,250 μg/ml | lack of activity | – | – | MBEC cysteamine[combination], S. aureus DSM 11729 biofilm cells ([1]; with 31.25 μg/ml NP108): 62.5 µg/mL; MIC ([2]; Pseudomonas aeruginosa, ATCCBAA47, agent alone, prevention of biofilm formation, 24 h): 320 µg/mL; MBEC cysteamine[combination], P. aeruginosa ATCC BAA-47 biofilm cells ([3]; with 250 μg/ml NP108): 62.5 µg/mL; MIC ([9]; Staphylococcus aureus, agent alone, prevention of biofilm formation, 24 h): > 320 µg/mL; MIC (Staphylococcus spp (4); Staphylococcus): 300 to 625 µg/mL; MIC ([10]; Pseudomonas aeruginosa): 300 to 2500 µg/mL; concentration that suppressed the viability of Gram-positive and Gram-negative persister cells [11]: ≤ 6.25 mg/mL; MBEC alone, P. aeruginosa ATCC27853 [14]: more than 100 mg/ml
N=C(N)NCCC[C@@H](N)C(=O)N[C@H](CCCNC(=N)N)C(=O)N[C@H](CCCNC(=N)N)C(=O)N[C@H](CCCNC(=N)N)C(=O)N[C@H](CCCNC(=N)N)C(=O)N[C@H](CCCNC(=N)N)C(=O)N[C@H](CCCNC(=N)N)C(=O)N[C@H](CCCNC(=N)N)C(=O)N[C@H](CCCNC(=N)N)C(=O)N[C@H](CCCNC(=N)N)C(=O)N[C@H](CCCNC(=N)N)C(=O)N[C@H](CCCNC(=N)N)C(=O)N[C@H](CCCNC(=N)N)C(=O)O [NP339, dRdRdRdRdRdRdRdRdRdRdRdRdR] | – | – | – | 156 to 625 µg/mL | – | >5,000 μg/ml | – | – | 625 µg/mL | – | 4 to 128 | 62.5 | MBEC, P. aeruginosa BAA-47 (PAO1); highest dose tested not sufficient to inhibit 100% of the biofilm cells ([3]; agent alone, FIG. 5): > 5 mg/mL; MBEC against biofilms of 3 Staphylococcus species ([5]; FIG. 5, range over 3 species): 156 to 625 µg/mL; concentration that inhibits the viability of P. aeruginosa BAA-47 (PAO1) persister cells ([15]; FIG. 6, FIG. 8): 625 µg/mL
poly-L-lysine, hydrobromide [NP108] | 125 | > 500 | >500 µg/mL | 125 to 250 µg/mL | lack of activity | – | 250 | 125 µg/mL | – | lack of activity | 16 to 125 | 31.25 to 500 | MBEC NP108[combination], S. aureus DSM 11729 biofilm cells ([1]; with 62.5 μg/ml cysteamine): 31.25 µg/mL; MIC, P. aeruginosa ATCC BAA-47 [2, 16]: 62.5 µg/mL; MIC of NP108 in the presence of cysteamine, P. aeruginosa ATCC BAA-47 ([2]; in the presence of 160 μg/ml cysteamine): 31.25 µg/mL; NP108 concentration giving complete inhibition of bacterial growth, P. aeruginosa ATCC BAA-47 biofilm cells ([3]; with 31.25 μg/ml cysteamine): 500 µg/mL; MBEC NP108[combination], P. aeruginosa ATCC BAA-47 biofilm cells ([3]; with 62.5 to 500 μg/ml cysteamine): 250 µg/mL; bactericidal concentration of NP108 in combination, P. aeruginosa ATCC BAA-47 ([8]; with 320 μg/ml cysteamine): 125 µg/mL; MIC of NP108 in the presence of cysteamine, S. aureus DSM 11729 ([9]; 320 μg/ml cysteamine added): 15.625 µg/mL; MIC, S. aureus DSM 11729 [9, 16]: 125 µg/mL; MIC of NP108 in the presence of cysteamine, S. aureus DSM 11729 ([9]; in the presence of 40 μg/ml cysteamine): 31.25 µg/mL; bactericidal concentration of NP108 in combination, S. aureus DSM 11729 ([12]; with ≥80 μg/ml cysteamine): 62.5 µg/mL; bactericidal concentration of NP108 in combination, S. aureus DSM 11729 ([12]; with ≥160 μg/ml cysteamine): 31.25 µg/mL
